Two compounds from patent US20100003217A1, “Compounds and Pharmaceutical Compositions for the Treatment of Viral Infections” (priority 2008, published 2010) can be followed below.

The series can be described thus: Metabolite profile in rat urine. The format is in vivo, male Sprague-Dawley rats. Particulars: for % AD (percent of administered dose) / % HPLC (percent of HPLC peak area in the sample extract): group 1C (IV dose) pooled urine; for % of total urinary excretion / Total % AD: group 1C (IV dose) urine; for Total % AD: total of all collections. The procedure:
Pooled urine samples were prepared for Groups 1C and 2C by mixing a fixed percent of the total volume for all four animals from the selected time points. For Group 1C, samples of the 1-, 2-, 6-, and 24-h collection intervals were pooled. For Group 2C, a pool of samples from all four animals was prepared for the 24 h collection intervals only. For 1-, 2-, and 6 h collection intervals, a urine sample of a single animal of Group 2A or 2B was used for analysis. All samples were brought to room temperature and vortexed briefly. The samples were diluted as necessary (2- to 20-fold) with appropriate aqueous mobile phase for the selected HPLC method. The pooled and diluted samples from the 24 h collection interval were centrifuged at 2040×g for 10 minutes. All other samples were analyzed without centrifugation. HPLC method 1 was used for HPLC profiling. Selected samples were analyzed by HPLC method 2 for comparison with the metabolite profile generated by microsomal and hepatocyte incubations (Examples 14 and 15) and with the metabolite profile of liver extracts.
Percent of the administered dose (% AD) for parent drug and each metabolite at each collection period=(% of the total radioactivity in the sample attributed to the metabolite)*(total radioactivity expressed as % of the administered dose, recovered during the corresponding collection period).
HPLC analyses of pooled urine samples of all time points were conducted for Group 1C. Metabolites R1, R2, R3, R4, R5, R6, R7 and R8 were characterized based on retention time.
For the PO dose group, a pooled urine sample from the 24-h collection time was analyzed. For 1-, 2-, and 6-h collection times, the majority of the samples had been used for radioanalysis. The remaining samples were insufficient for proportional pooling. Therefore, single animal samples of […] groups were used for HPLC profiling. Metabolites R^1, R^2, R^3, R^4, R^5, R^6, R^7 and R^8 were characterized based on retention time.
Table 50 contains data from single animal samples and pooled samples. To estimate overall distribution of urinary metabolites, it was assumed that the profile from a single animal is reflective of the overall average metabolite profile. Therefore, HPLC distribution data from single animals was used to calculate the percentage of administered dose excreted as various metabolites during the 1-, 2-, and 6-h collection intervals. Metabolites R1, R2, R3, R4, R5, R6, R7 and R8 were characterized based on retention time.

The structures appear in SMILES notation.

Consider `CC(C)(CO)C(=O)SCCOP(N)(=O)OC[C@H]1O[C@@H](n2cnc3c(=O)[nH]c(N)nc32)[C@](C)(O)[C@@H]1O` (single isomer, unassigned; diastereomer 1) [Compd 3 Diastereomer 1], for which the “% of total urinary excretion” value was 0.25% and the “Total % AD” value was determined as 0.12 % AD. Further, under “1 h collection”, the “% AD (percent of administered dose)” value came to 0.05 % AD and the “% HPLC (percent of HPLC peak area in the sample extract)” value is on record as 0.24%. Also, under “2 h collection”, the “% AD (percent of administered dose)” value worked out at 0.05 % AD and the “% HPLC (percent of HPLC peak area in the sample extract)” value stood at 1.01%. Besides, for the setting “6 h collection”, the “% AD (percent of administered dose)” value amounted to 0.01 % AD and the “% HPLC (percent of HPLC peak area in the sample extract)” value turned out to be 0.37%.

As to `CC(C)(CO)C(=O)SCCOP(N)(=O)OC[C@H]1O[C@@H](n2cnc3c(=O)[nH]c(N)nc32)[C@](C)(O)[C@@H]1O` (single isomer, unassigned; diastereomer 2) [Compd 3 Diastereomer 2], the “% of total urinary excretion” value stood at 0.84% and the “Total % AD” value was 0.39 % AD. Moreover, for the setting “1 h collection”, the “% AD (percent of administered dose)” value was found to be 0.23 % AD and the “% HPLC (percent of HPLC peak area in the sample extract)” value amounted to 1.00%. In addition, where the note is “2 h collection”, the “% AD (percent of administered dose)” value is 0.14 % AD and the “% HPLC (percent of HPLC peak area in the sample extract)” value is 2.69%. In addition, under “6 h collection”, the “% AD (percent of administered dose)” value was 0.03 % AD and the “% HPLC (percent of HPLC peak area in the sample extract)” value stood at 1.19%.
